Laboratory results: PMC6514978, “Synthesis, Antibacterial Activities, Mode of Action and Acute Toxicity Studies of New Oxazolidinone-Fluoroquinolone Hybrids” (Molecules, 2019)
≈ marks a conversion by molar mass, not a printed value.

What was measured:
VRE (13B330) = test: MIC, broth microdilution (CLSI), clinical isolate; type: cell-based, vancomycin-resistant enterococcus; conditions: Enterococcus
Description: (§1) 6 standard strains and 3 clinical isolates were used to the preliminary evaluation of in vitro antibacterial activities of oxazolidinone-fluoroquinolone hybrids. For the further evaluation of hybrids OBP-4 and OBP-5, 263 clinical isolates including S. aureus (46), S. haemolyticus(32), S. epidermidis (10), E. faecalis (72), E. faecium (47), S. pneumoniae (13), H. parasuis (34), S. suis (9), and 8 resistant strains including MRSA, MRSE, CIP-resistant S. aureus and S. haemolyticus, VAN and quinolone-resistant S. pneumoniae, LZD-resistant E. faecalis, LZD/VAN and quinolone-resistant E. faecium were collected and tested.
(§2) Susceptibility testing of oxazolidinone-fluoroquinolone hybrids against various bacteria was performed by the broth microdilution method as outlined by the Clinical and Laboratory Standards Institute (CLSI). Three types of media, including cation-adjusted Mueller Hinton broth, Haemophilus Test Medium and cation-adjusted Mueller Hinton broth that contained 3%–5% lysed horse blood, were used to culture the corresponding bacteria. All compounds including comparator drugs were dissolved in an appropriate solvent at a concentration of 2.048 mg/mL and then serially diluted two-fold to provide the required concentrations. A final inoculum of 5 × 10^5 CFU/mL was used and plates were read after incubation for 16–24 h at 35 °C. […] Standard quality control strains (ATCC) were included throughout. Each determination was repeated in triplicate.

E. coli (ATCC25922) = test: MIC, broth microdilution (CLSI), standard strain; type: cell-based; conditions: Escherichia coli, ATCC25922
Description: as §1, §2

E. faecalis (ATCC29212) = test: MIC, broth microdilution (CLSI), standard strain; type: cell-based; conditions: Enterococcus faecalis; E. faecalis (ATCC29212); read-out: MIC
Description: as §1, §2

[1] = test system: H. influenzae (ATCC49247); test: MIC, broth microdilution (CLSI), standard strain; type: cell-based; conditions: Haemophilus influenzae
Description: as §1, §2

[2] = test system: P. Aeruginosa (ATCC27853); test: MIC, broth microdilution (CLSI), standard strain; type: cell-based; conditions: Pseudomonas aeruginosa, ATCC27853
Description: as §1, §2

S. aureus (ATCC29213) = test: MIC, broth microdilution (CLSI), standard strain; type: cell-based; conditions: Staphylococcus aureus
Description: as §1, §2

[3] = test system: S. pneumoniae (ATCC49619); test: MIC, broth microdilution (CLSI), standard strain; type: cell-based; conditions: Streptococcus pneumoniae
Description: as §1, §2

[4] = test system: S. epidermidis (10) clinical isolates; test: Susceptibility of clinical isolates (MIC); type: cell-based, Staphylococcus epidermidis
Procedure: as §2, with “All compounds including comparator drugs were dissolved in an appropriate solvent at a concentration of 2.048 mg/mL and then serially diluted two-fold to provide the required concentrations.” left out

[5] = test system: E. faecium (47) clinical isolates; test: Susceptibility of clinical isolates (MIC); type: cell-based, Enterococcus faecium
Procedure: as §2, with “All compounds including comparator drugs were dissolved in an appropriate solvent at a concentration of 2.048 mg/mL and then serially diluted two-fold to provide the required concentrations.” left out

MRSE = test: MIC against drug-resistant strain; type: cell-based, S. epidermidis; conditions: Staphylococcus epidermidis, read-out: MIC
Procedure: (§3) 6 standard strains and 3 clinical isolates were used to the preliminary evaluation of in vitro antibacterial activities of oxazolidinone-fluoroquinolone hybrids.
as §2, with “All compounds including comparator drugs were dissolved in an appropriate solvent at a concentration of 2.048 mg/mL and then serially diluted two-fold to provide the required concentrations.” left out

[6] = test system: LZD-resistant E. faecalis; test: microbe, parasite or virus in culture; type: cell-based; conditions: Enterococcus faecalis
Procedure: as §3
as §2, with “All compounds including comparator drugs were dissolved in an appropriate solvent at a concentration of 2.048 mg/mL and then serially diluted two-fold to provide the required concentrations.” left out

CIP-resistant S. aureus = test: MIC against drug-resistant strain; type: cell-based; conditions: Staphylococcus aureus; S. aureus, CIP-resistant; read-out: MIC
Procedure: as §3
as §2, with “All compounds including comparator drugs were dissolved in an appropriate solvent at a concentration of 2.048 mg/mL and then serially diluted two-fold to provide the required concentrations.” left out

[7] = test system: CIP-resistant S. haemolyticus; test: MIC against drug-resistant strain; type: cell-based; conditions: Staphylococcus haemolyticus; S. haemolyticus, CIP-resistant; read-out: MIC
Procedure: as §3
as §2, with “All compounds including comparator drugs were dissolved in an appropriate solvent at a concentration of 2.048 mg/mL and then serially diluted two-fold to provide the required concentrations.” left out

[8] = test system: LZD and quinolone-resistant E. faecium; test: MIC against drug-resistant strain; type: cell-based; conditions: Enterococcus faecium; E. faecium, LZD and quinolone-resistant; read-out: MIC
Procedure: as §3
as §2, with “All compounds including comparator drugs were dissolved in an appropriate solvent at a concentration of 2.048 mg/mL and then serially diluted two-fold to provide the required concentrations.” left out

MRSA = test: MIC against drug-resistant strain; type: cell-based; conditions: Staphylococcus aureus, read-out: MIC
Procedure: as §3
as §2, with “All compounds including comparator drugs were dissolved in an appropriate solvent at a concentration of 2.048 mg/mL and then serially diluted two-fold to provide the required concentrations.” left out

[9] = test system: VAN and quinolone-resistant E. faecium; test: MIC against drug-resistant strain; type: cell-based; conditions: Enterococcus faecium; E. faecium, VAN and quinolone-resistant; read-out: MIC
Procedure: as §3
as §2, with “All compounds including comparator drugs were dissolved in an appropriate solvent at a concentration of 2.048 mg/mL and then serially diluted two-fold to provide the required concentrations.” left out

[10] = test system: VAN and quinolone-resistant S. pneumoniae; test: MIC against drug-resistant strain; type: cell-based; conditions: Streptococcus pneumoniae; S. pneumoniae, VAN and quinolone-resistant; read-out: MIC
Procedure: as §3
as §2, with “All compounds including comparator drugs were dissolved in an appropriate solvent at a concentration of 2.048 mg/mL and then serially diluted two-fold to provide the required concentrations.” left out

[11] = test system: protein synthesis (E. coli extract-based cell-free protein expression system); test: In vitro transcription/translation assay (S30 T7 cell-free system, Renilla luciferase); type: biochemical; conditions: E. coli S30 T7 cell-free transcription/translation, 1 h, 37 °C; read-out: IC50 Inhib. of Protein Synthesis
Procedure: The influence of hybrids OBP-4 and OBP-5 against protein synthesis was confirmed by the S30 T7 High-Yield Protein Expression System (Promega Co., Ltd.). The S30 T7 High-Yield Protein Expression System is an E. coli extract-based cell-free protein expression system, which can effectively transcribe and translate DNA fragments with a T7 promoter. The reaction system containing 1 μg plasmid DNA, 20 μL S30 Premix Plus and 18 μL T7 S30 Extract with or without compounds was incubated for 1 h at 37 °C with a rotational speed of 250 rpm, and terminated by cooling in ice for 5 min in a 96-well white multi-well plate. Then, 1.25 μL of the translation reaction mixture was added to 48.75 μL of Renilla Luciferase Assay Lysis Buffer, and mixed with 50 μL of Renilla Luciferase Assay Reagent (cat no. E2810; Promega). Renilla luciferase activity was measured on EnSpire® Multimode Plate Reader (PerkinElmer, Waltham, MA, USA). […] LZD was used as a positive control.

[12] = E. faecium clinical isolates, CLSI criteria

CC(=O)NC[C@H]1CN(c2ccc(N3CCOCC3)c(F)c2)C(=O)O1 [LZD, linezolid, reference compound]
MIC (VRE (13B330)): 2 µg/mL (≈ 5.93 µM) | MIC (E. coli (ATCC25922)): 128 µg/mL (≈ 379 µM) | MIC (E. faecalis (ATCC29212)): 4 µg/mL (≈ 11.9 µM) | MIC [1]: 8 µg/mL (≈ 23.7 µM) | MIC [2]: 128 µg/mL (≈ 379 µM) | MIC (S. aureus (ATCC29213)): 4 µg/mL (≈ 11.9 µM) | MIC [3]: 1 µg/mL (≈ 2.96 µM) | CLSI %S (susceptible) ([4]; S. epidermidis clinical isolates, CLSI criteria): 100.0/- % | MIC50 ([4]; Staphylococcus epidermidis, S. epidermidis, 10 clinical isolates, read-out: MIC50): 1 µg/mL (≈ 2.96 µM) | MIC90 ([4]; Staphylococcus epidermidis, S. epidermidis, 10 clinical isolates, read-out: MIC90): 1 µg/mL (≈ 2.96 µM) | MIC ([4]; Staphylococcus epidermidis, S. epidermidis, 10 clinical isolates, read-out: MIC Range): 0.5 to 1 µg/mL (≈ 1.48 to 2.96 µM) | CLSI %R (resistant) [5, 12]: 13.8% | CLSI %S (susceptible) [5, 12]: 82.8% | MIC Range ([5]; E. faecium, 47 clinical isolates): 0.5 to 16 µg/mL | MIC50 ([5]; Enterococcus faecium, E. faecium, 47 clinical isolates, read-out: MIC50): 2 µg/mL (≈ 5.93 µM) | MIC90 ([5]; Enterococcus faecium, E. faecium, 47 clinical isolates, read-out: MIC90): 4 µg/mL (≈ 11.9 µM) | MIC (MRSE): 0.25 µg/mL (≈ 0.741 µM) | MIC [6]: 8 µg/mL (≈ 23.7 µM) | MIC (CIP-resistant S. aureus): 2 µg/mL (≈ 5.93 µM) | MIC [7]: 8 µg/mL (≈ 23.7 µM) | MIC [8]: 16 µg/mL (≈ 47.4 µM) | MIC (MRSA): 4 µg/mL (≈ 11.9 µM) | MIC [9]: 2 µg/mL (≈ 5.93 µM) | MIC [10]: 0.5 µg/mL (≈ 1.48 µM) | IC50 [11]: 5 µM
